Reference: US20230192700A1, “PYRAZOLOPYRAZINES ACTING ON CANCERS VIA INHIBITION OF CDK12” (Bayer Aktiengesellschaft, priority 2020, published 2023)

What follows are compounds tested against T1, CDK9/CyclinT1 (Homo sapiens, UniProt P50750) (assay: CDK9/CycT1 high ATP kinase assay (TR-FRET)). Settings: 2 mM ATP (high ATP); median; read-out: CDK9/CyclinT1, 2 mM ATP (high ATP) IC50 - [mol/l] (median).
T1 construct: Recombinant full-length His-tagged human CDK9 and CycT1; His-tag; purchased Life Technologies PV4131; host or cells: insect cells
Assay type: biochemical
Method: 2.5 CDK9/CycT1 High ATP Kinase Assay
CDK9/CycT1 -inhibitory activity of compounds of the present invention at a high ATP concentration after preincubation of enzyme and test compounds was quantified employing the CDK9/CycT1 TR-FRET assay as described in the following paragraphs.
Recombinant full-length His-tagged human CDK9 and CycT1, expressed in insect cells and purified by Ni-NTA affinity chromatography, were purchased from Life Technologies (Cat. No PV4131). As substrate for the kinase reaction biotinylated peptide biotin-Ttds-YISPLKSPYKISEG (C-terminus in amide form) was used which can be purchased e.g. form the company JERINI peptide technologies (Berlin, Germany).
For the assay 50 nanoL of a 100 fold concentrated solution of the test compound in DMSO was pipetted into either a black low volume 384 well microtiter plate or a black 1536 well microtiter plate (both Greiner Bio-One, Frickenhausen, Germany), 2 microL of a solution of CDK9/CycT1 in aqueous assay buffer [50 millimol/L Tris/HCl pH 8.0, 10 millimol/L MgCl2, 1.0 millimol/L dithiothreitol, 0.1 millimol/L sodium ortho-vanadate, 0.01% (v/v) Nonidet-P40 (Sigma)] were added and the mixture was incubated for 15 min at 22° C. to allow pre-binding of the test compounds to the enzyme before the start of the kinase reaction. Then the kinase reaction was started by the addition of 3 microL of a solution of adenosine-tri-phosphate (ATP, 3.3 millimol/L=>final conc. in the 5 microL assay volume is 2 millimol/L) and substrate (1.25 micromol/L =>final conc. in the 5 microL assay volume is 0.75 micromol/L) in assay buffer and the resulting mixture was incubated for a reaction time of 25 min at 22° C. The concentration of CDK9/CycT1 was adjusted depending of the activity of the enzyme lot and was chosen appropriate to have the assay in the linear range, typical concentrations were in the range of 0.5 microg/mL. The reaction was stopped by the addition of 3 microL of a solution of TR-FRET detection reagents (0.33 micromol/L streptavidine-XL665 [Cisbio Bioassays, Codolet, France] and 1.67 nanomol/L anti-RB(pSer807/pSer811)-antibody from BD Pharmingen [#558389] and 2 nanomol/L LANCE EU-W1024 labeled anti-mouse IgG antibody [Perkin-Elmer, product no. AD0077]) in an aqueous EDTA-solution (167 millimol/L EDTA, 0.2% (w/v) bovine serum albumin in 100 millimol/L HEPES pH 7.5).
The resulting mixture was incubated 1 h at 22° C. to allow the formation of complex between the phosphorylated biotinylated peptide and the detection reagents. Subsequently the amount of phosphorylated substrate was evaluated by measurement of the resonance energy transfer from the Eu-chelate to the streptavidine-XL. Therefore, the fluorescence emissions at 620 nm and 665 nm after excitation at 350 nm was measured in a TR-FRET reader, e.g. a Pherastar (BMG Labtechnologies, Offenburg, Germany) or a Viewlux (Perkin-Elmer). The ratio of the emissions at 665 nm and at […] was taken as the measure for the amount of phosphorylated substrate. The data were normalised (enzyme reaction without inhibitor=0% inhibition, all other assay components but no enzyme=100% inhibition).

T1 sequence (P50750 whole entry): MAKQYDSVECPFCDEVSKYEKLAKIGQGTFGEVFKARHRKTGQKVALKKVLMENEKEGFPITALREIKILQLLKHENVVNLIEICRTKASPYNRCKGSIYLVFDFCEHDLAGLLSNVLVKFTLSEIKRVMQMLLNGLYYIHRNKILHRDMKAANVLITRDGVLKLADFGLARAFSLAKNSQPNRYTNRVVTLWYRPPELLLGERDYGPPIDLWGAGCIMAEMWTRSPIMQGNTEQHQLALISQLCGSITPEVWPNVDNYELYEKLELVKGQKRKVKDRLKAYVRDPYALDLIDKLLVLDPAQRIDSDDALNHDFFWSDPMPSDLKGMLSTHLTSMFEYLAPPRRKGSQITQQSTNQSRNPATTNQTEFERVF
T1 sequence (O60563 whole entry partner): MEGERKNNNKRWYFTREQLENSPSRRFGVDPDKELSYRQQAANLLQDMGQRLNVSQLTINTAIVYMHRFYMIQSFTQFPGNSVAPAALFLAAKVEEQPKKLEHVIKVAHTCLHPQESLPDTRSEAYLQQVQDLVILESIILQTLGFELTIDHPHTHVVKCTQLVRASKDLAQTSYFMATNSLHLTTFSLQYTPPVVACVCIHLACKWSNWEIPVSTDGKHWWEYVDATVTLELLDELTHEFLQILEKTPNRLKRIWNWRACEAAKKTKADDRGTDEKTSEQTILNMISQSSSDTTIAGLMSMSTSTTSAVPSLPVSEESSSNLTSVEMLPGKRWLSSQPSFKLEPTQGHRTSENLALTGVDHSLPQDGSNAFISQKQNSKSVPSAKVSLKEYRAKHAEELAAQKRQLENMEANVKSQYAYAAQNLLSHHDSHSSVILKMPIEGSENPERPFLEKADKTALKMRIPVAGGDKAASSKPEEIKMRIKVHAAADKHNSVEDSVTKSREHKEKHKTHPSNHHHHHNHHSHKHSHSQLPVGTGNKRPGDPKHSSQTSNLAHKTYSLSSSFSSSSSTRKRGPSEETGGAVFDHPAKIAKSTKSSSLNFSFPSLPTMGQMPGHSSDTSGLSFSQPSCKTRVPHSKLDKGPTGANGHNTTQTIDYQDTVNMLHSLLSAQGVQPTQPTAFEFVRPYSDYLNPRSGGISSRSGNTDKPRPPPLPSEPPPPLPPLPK

SMILES | IC50 [µM]
Cc1cnc2c(NCc3nc4ccccc4[nH]3)nn(C3CCN(C)CC3)c2n1 [Example 77, N-[(1H-benzimidazol-2-yl)methyl]-6-methyl-1-(1-methylpiperidin-4-yl)-1H-pyrazolo[3,4-b]pyrazin-3-amine] | > 20
Cc1c(Cl)ccc2[nH]c(CNc3nn(C4CCN(C)CC4)c4nc(C5CC5)cnc34)nc12 [Example 21, N-[(5-chloro-4-methyl-1H-benzimidazol-2-yl)methyl]-6-cyclopropyl-1-(1-methylpiperidin-4-yl)-1H-pyrazolo[3,4-b]pyrazin-3-amine] | > 20
CC(C)(C)OC(=O)N1CCC(n2nc(NCc3nc4ccccc4[nH]3)c3ncc(C4CC4)nc32)CC1 [Example 11, tert-butyl 4-(3-{[(1H-benzimidazol-2-yl)methyl]amino}-6-cyclopropyl-1H-pyrazolo[3,4-b]pyrazin-1-yl)piperidine-1-carboxylate] | > 20
CN1CCCC(n2nc(NCc3nc4ccccc4[nH]3)c3ncc(C4CC4)nc32)CC1 (single isomer, unassigned) [Example 38, (−) or (+)-N-[(1H-benzimidazol-2-yl)methyl]-6-cyclopropyl-1-[(4R*)-1-methylazepan-4-yl]-1H-pyrazolo[3,4-b]pyrazin-3-amine] | > 20
Cc1c(F)ccc2[nH]c(CNc3nn(C4CCN(C)CC4)c4nc(C5CC5)cnc34)nc12 [Example 26, 6-cyclopropyl-N-[(5-fluoro-4-methyl-1H-benzimidazol-2-yl)methyl]-1-(1-methylpiperidin-4-yl)-1H-pyrazolo[3,4-b]pyrazin-3-amine] | > 20
O[C@H]1CC[C@H](n2nc(NCc3nc4cc(F)ccc4[nH]3)c3ncc(C4CC4)nc32)CC1 [Example 56, trans-4-(6-cyclopropyl-3-{[(5-fluoro-1H-benzimidazol-2-yl)methyl]amino}-1H-pyrazolo[3,4-b]pyrazin-1-yl)cyclohexan-1-ol] | > 20
Cc1cccc2[nH]c(CNc3nn(C4CCN(C)CC4)c4nc(C5CC5)cnc34)nc12 [Example 8, 6-cyclopropyl-N-[(4-methyl-1H-benzimidazol-2-yl)methyl]-1-(1-methylpiperidin-4-yl)-1H-pyrazolo[3,4-b]pyrazin-3-amine] | > 20
CN1CCC(n2nc(NCc3nc4cc(F)c(F)cc4[nH]3)c3ncc(C4CC4)nc32)CC1 [Example 30, 6-cyclopropyl-N-[(5,6-difluoro-1H-benzimidazol-2-yl)methyl]-1-(1-methylpiperidin-4-yl)-1H-pyrazolo[3,4-b]pyrazin-3-amine] | > 20
Cc1ccc2[nH]c(CNc3nn(C4CCN(C)CC4)c4nc(C5CC5)cnc34)nc2c1 [Example 6, 6-cyclopropyl-N-[(5-methyl-1H-benzimidazol-2-yl)methyl]-1-(1-methylpiperidin-4-yl)-1H-pyrazolo[3,4-b]pyrazin-3-amine] | ≥ 12.7
CN1CCC(n2nc(NCc3nc4cc(Cl)c(Cl)cc4[nH]3)c3ncc(C4CC4)nc32)CC1 [Example 19, 6-cyclopropyl-N-[(5,6-dichloro-1H-benzimidazol-2-yl)methyl]-1-(1-methylpiperidin-4-yl)-1H-pyrazolo[3,4-b]pyrazin-3-amine] | > 20
c1ccc2[nH]c(CNc3nn(C4C[C@H]5CC[C@@H](C4)O5)c4nc(C5CC5)cnc34)nc2c1 (stereo partly drawn) [Example 45, exo/endo-N-[(1H-benzimidazol-2-yl)methyl]-6-cyclopropyl-1-(8-oxabicyclo[3.2.1]octan-3-yl)-1H-pyrazolo[3,4-b]pyrazin-3-amine] | > 20

Continued, values first:

IC50 [µM] | SMILES
> 20 | OCCn1nc(NCc2nc3ccccc3[nH]2)c2ncc(C3CC3)nc21 [Example 66, 2-(3-{[(1H-benzimidazol-2-yl)methyl]amino}-6-cyclopropyl-1H-pyrazolo[3,4-b]pyrazin-1-yl)ethan-1-ol]
> 20 | c1ccc2[nH]c(CNc3nn(C4CCOC4)c4nc(C5CC5)cnc34)nc2c1 (single isomer, unassigned) [Example 18, (-) or (+) -N-[(1H-benzimidazol-2-yl)methyl]-6-cyclopropyl-1-[oxolan-3-yl]-1H-pyrazolo[3,4-b]pyrazin-3-amine]
> 20 | CC(C)(O)C1CC(n2nc(NCc3nc4ccccc4[nH]3)c3ncc(C4CC4)nc32)C1 (mixture of isomers) [Example 48, 2-[cis/trans-3-(3-{[(1H-benzimidazol-2-yl)methyl]amino}-6-cyclopropyl-1H-pyrazolo[3,4-b]pyrazin-1-yl)cyclobutyl]propan-2-ol]
> 20 | O[C@H]1C[C@H](n2nc(NCc3nc4ccccc4[nH]3)c3ncc(C4CC4)nc32)C1 [Example 43, trans-3-(3-{[(1H-benzimidazol-2-yl)methyl]amino}-6-cyclopropyl-1H-pyrazolo[3,4-b]pyrazin-1-yl)cyclobutan-1-ol]
> 20 | OC[C@H]1C[C@@H](n2nc(NCc3nc4ccccc4[nH]3)c3ncc(C4CC4)nc32)C1 [Example 47, [cis-3-(3-{[(1H-benzimidazol-2-yl)methyl]amino}-6-cyclopropyl-1H-pyrazolo[3,4-b]pyrazin-1-yl)cyclobutyl]methanol]
> 20 | COC(C)(C)CCn1nc(NCc2nc3ccccc3[nH]2)c2ncc(C3CC3)nc21 [Example 67, N-[(1H-benzimidazol-2-yl)methyl]-6-cyclopropyl-1-(3-methoxy-3-methylbutyl)-1H-pyrazolo[3,4-b]pyrazin-3-amine]
> 20 | CN1CCC(n2nc(NCc3nc4ccccc4[nH]3)c3ncc(C4CC4)nc32)CC1 [Example 1, N-[(1H-benzimidazol-2-yl)methyl]-6-cyclopropyl-1-(1-methylpiperidin-4-yl)-1H-pyrazolo[3,4-b]pyrazin-3-amine]
> 20 | OC[C@H]1C[C@H](n2nc(NCc3nc4ccccc4[nH]3)c3ncc(C4CC4)nc32)C1 [Example 46, [trans-3-(3-{[(1H-benzimidazol-2-yl)methyl]amino}-6-cyclopropyl-1H-pyrazolo[3,4-b]pyrazin-1-yl)cyclobutyl]methanol]
> 20 | O[C@H]1CC[C@@H](n2nc(NCc3nc4ccccc4[nH]3)c3ncc(C4CC4)nc32)CC1 [Example 51, cis-4-(3-{[(1H-benzimidazol-2-yl)methyl]amino}-6-cyclopropyl-1H-pyrazolo[3,4-b]pyrazin-1-yl)cyclohexan-1-ol]
> 20 | c1ccc2[nH]c(CNc3nn(C4CCNCC4)c4nc(C5CC5)cnc34)nc2c1 [Example 12, N-[(1H-benzimidazol-2-yl)methyl]-6-cyclopropyl-1-(piperidin-4-yl)-1H-pyrazolo[3,4-b]pyrazin-3-amine]
> 20 | CC(C)n1nc(NCc2nc3ccccc3[nH]2)c2ncc(C3CC3)nc21 [Example 14, N-[(1H-benzimidazol-2-yl)methyl]-6-cyclopropyl-1-(propan-2-yl)-1H-pyrazolo[3,4-b]pyrazin-3-amine]
> 20 | O[C@H]1C[C@@H](n2nc(NCc3nc4ccccc4[nH]3)c3ncc(C4CC4)nc32)C1 [Example 40, cis-3-(3-{[(1H-benzimidazol-2-yl)methyl]amino}-6-cyclopropyl-1H-pyrazolo[3,4-b]pyrazin-1-yl)cyclobutan-1-ol]
> 20 | COCCC(C)n1nc(NCc2nc3ccccc3[nH]2)c2ncc(C3CC3)nc21 (single isomer, unassigned; (+)) [Example 59, (+)-N-[(1H-benzimidazol-2-yl)methyl]-6-cyclopropyl-1-[4-methoxybutan-2-yl]-1H-pyrazolo[3,4-b]pyrazin-3-amine]
> 20 | O[C@H]1CC[C@H](n2nc(NCc3nc4ccccc4[nH]3)c3ncc(C4CC4)nc32)CC1 [Example 50, trans-4-(3-{[(1H-benzimidazol-2-yl)methyl]amino}-6-cyclopropyl-1H-pyrazolo[3,4-b]pyrazin-1-yl)cyclohexan-1-ol]
